What was measured:
beagle bitch [1] = assay: Single subcutaneous injection in a pregnant beagle bitch: plasma progesterone and abortion (Example 3); assay type: in vivo, dogs; conditions: single subcutaneous injection of 50 mg on the twenty-ninth day of pregnancy
Method: A beagle bitch was bred and confirmed to be pregnant by manual palpation of the uterus during the fourth week of gestation. On the twenty-ninth day of pregnancy […] was administered a single subcutaneous injection of an aqueous solution of 50 mg of [N-Ac-D-Nal(2) , D-p-C1-Phe, D-Trp , D-Deh , D-Ala ]LHRH. Immediately before injection the plasma progesterone levels was 19ng/ml and by 24 hours after injection this had declined to 3.3 ng/ml. Plasma levels of progesterone varied thereafter from day to day but were never above 6 ng/ml. Delivery of an abortus was noted on the 36th day of pregnancy.

bitch = assay: Plasma progesterone and pregnancy outcome in a bitch given daily subcutaneous injections for 7 days (Example 1); assay type: in vivo, dogs
Source text: A bitch was bled and the plasma progesterone measured in nanograms per milliliter versus the day of diestrus. The bitch was bled on day -8 and day -4. The plasma progesterone was 4 to 6 nanograms per milliliter on those two days. At day 1, the plasma progesterone was at 30 nanograms per milliliter and peaked at about 60 on day 9 slowly decreasing to about 30 on day 25. At day 25 the bitch started to receive daily subcutaneous 1 2 3 injections of [N-Ac-D-Nal(2) , D-p-Cl-Phe , D-Trp , D-Deh , D-Ala ] LHRH for 7 days. After the first injection the plasma progesterone level immediately dropped to 4 nanograms per milliliter. At the end of the course of treatment, the level of plasma progesterone was down below 1 nanogram per milliliter. A fetus was expelled the 5th day of treatment and a tissue mass was expelled on day 49, which was 24 days after the start of treatment.

pregnant cats = assay: Seven-day subcutaneous minipump infusion in pregnant cats: plasma progesterone and pregnancy (Example 5); assay type: in vivo; conditions: for Plasma level of progesterone: 300 μg/kg/day for seven days
Method: Female cats were bred and 15-18 days later were implanted subcutaneously with an Alzet^8 minipump filled with a solution of [N-Ac-D-Nal(2) , D-p-Cl-Phe , D-Trp , D-Deh ,D-Ala ]LHRH in propylene glycol at a concentration sufficient to deliver 300 µg/kg/day. The pumps were removed after seven days. No effect of treatment on circulating levels of progesterone could be discerned in daily plasma samples.

beagle bitch [2] = assay: Termination of estrus in a beagle bitch (Example 4); assay type: in vivo, dogs; conditions: 300 µg/kg/day for 14 days started on day 2 (entering estrus)
Method: A beagle bitch was identified with a slight sanguineous vaginal discharge (day 1 of the experiment). Microscopic evaluation of vaginal cytology confirmed the bitch to be in proestrus. […] She was immediately started on a course of treatment of 300 µg/kg/day for 14 days of [N-Ac-D-Nal(2) , D-p-Cl-Phe , D-Trp , D-Deh ,D-Ala ]LHRH.
The vaginal discharge diminished and was last noted on day 5. By day 6 the bitch was confirmed by vaginal cytology to have reentered diestrus.

pregnant beagle bitches = assay: Effect of time of dosing with two LHRH antagonists on pregnancy in bitches (Example 2, Table 1); assay type: in vivo, dogs; conditions: daily injection for seven days, 300 µg/kg/day
Method: Several pregnant beagle bitches were treated with one of two different LHRH antagonists by subcutaneous injection.

N-Ac-D-Nal(2)-D-pCL-Phe-D-Trp-Ser-Tyr-D-Deh-Leu-Arg-ProD-Ala
plasma progesterone level 24 hours after injection (beagle bitch [1]; 19ng/ml immediately before injection): 3.3 ng/mL | plasma levels of progesterone thereafter (beagle bitch [1]; later than 24 hours, varied from day to day): ≤ 6 ng/mL | level of plasma progesterone at the end of the course of treatment (bitch; bitch, daily subcutaneous injections for 7 days starting day 25 of diestrus): below 1 nanogram per milliliter | plasma progesterone level after the first injection (bitch; bitch, daily subcutaneous injections for 7 days starting day 25 of diestrus, about 30 on day 25 before treatment): 4 nanograms per milliliter | tissue mass expelled, day (bitch; day of diestrus, 24 days after the start of treatment): 49 | Plasma level of progesterone (pregnant cats; Cat 1, day 0 from treatment): 4.0 ng/mL | Plasma level of progesterone (pregnant cats; Cat 1, day 1 from treatment): 2.7 ng/mL | Plasma level of progesterone (pregnant cats; Cat 1, day 2 from treatment): 4.3 ng/mL | Plasma level of progesterone (pregnant cats; Cat 1, day 3 from treatment): 4.0 ng/mL | Plasma level of progesterone (pregnant cats; Cat 1, day 4 from treatment): 4.4 ng/mL | Plasma level of progesterone (pregnant cats; Cat 1, day 5 from treatment): 3.8 ng/mL | Plasma level of progesterone (pregnant cats; Cat 1, day 6 from treatment): 5.7 ng/mL | Plasma level of progesterone (pregnant cats; Cat 1, day 7 from treatment): 3.3 ng/mL | Plasma level of progesterone (pregnant cats; Cat 1, day 8 from treatment): 6.5 ng/mL | Plasma level of progesterone (pregnant cats; Cat 1, day 9 from treatment): 6.7 ng/mL | Plasma level of progesterone (pregnant cats; Cat 1, day 10 from treatment): 5.2 ng/mL | Plasma level of progesterone (pregnant cats; Cat 1, day -1 from treatment (before treatment)): 2.0 ng/mL | Plasma level of progesterone (pregnant cats; Cat 1, day -2 from treatment (before treatment)): 4.5 ng/mL | Plasma level of progesterone (pregnant cats; Cat 2, day 0 from treatment): 2.3 ng/mL | Plasma level of progesterone (pregnant cats; Cat 2, day 1 from treatment): 4.1 ng/mL | Plasma level of progesterone (pregnant cats; Cat 2, day 2 from treatment): 5.2 ng/mL | Plasma level of progesterone (pregnant cats; Cat 2, day 3 from treatment): 3.9 ng/mL | Plasma level of progesterone (pregnant cats; Cat 2, day 4 from treatment): 4.2 ng/mL | Plasma level of progesterone (pregnant cats; Cat 2, day 5 from treatment): 4.2 ng/mL | Plasma level of progesterone (pregnant cats; Cat 2, day 6 from treatment): 6.3 ng/mL | Plasma level of progesterone (pregnant cats; Cat 2, day 7 from treatment): 5.5 ng/mL | Plasma level of progesterone (pregnant cats; Cat 2, day 8 from treatment): 6.1 ng/mL | Plasma level of progesterone (pregnant cats; Cat 2, day 9 from treatment): 7.3 ng/mL | Plasma level of progesterone (pregnant cats; Cat 2, day 10 from treatment): 6.7 ng/mL | Plasma level of progesterone (pregnant cats; Cat 2, day -1 from treatment (before treatment)): 3.0 ng/mL | Plasma level of progesterone (pregnant cats; Cat 2, day -2 from treatment (before treatment)): 4.3 ng/mL | pregnancy outcome (pregnant cats; cats implanted 15-18 days after breeding, minipump 300 µg/kg/day for seven days): All treated cats continued to normal uneventful term delivery | effect of treatment on circulating levels of progesterone (pregnant cats; cats implanted 15-18 days after breeding, minipump 300 µg/kg/day for seven days, daily plasma samples): No effect | attractiveness to stud males (beagle bitch [2]): not attractive to stud males | reentered diestrus confirmed by vaginal cytology, day of the experiment (beagle bitch [2]): ≤ 6 | sexual receptivity (beagle bitch [2]): no sign of sexual receptivity | vaginal discharge last noted, day of the experiment (beagle bitch [2]): 5 | COMMENT (pregnancy outcome) (pregnant beagle bitches; dog 1, treatment on days 36-42 of pregnancy): Aborted on days 39-41 of pregnancy | COMMENT (pregnancy outcome) (pregnant beagle bitches; dog 2, treatment on days 32-38 of pregnancy): Aborted on day 35 of pregnancy

From patent EP0199302A2, “Contraception in dogs with luteinizing hormone releasing hormone antagonists” (SYNTEX (U.S.A.) INC., priority 1985, dated 1986)
